Test results as given in patent publication US12226410B2, “Methods for enhancing cellular clearance of pathological molecules via activation of the cellular protein ykt6” (NORTHWESTERN UNIVERSITY, priority 2019, dated 2025).

Tests used:
ykt6 = test: Ykt6 membrane shift analysis (cytosol/membrane fractions) in FTI-treated cultures; type: cell-based, human; conditions: SH-SY5Y wt a-syn cells and A53T iPSn; 5 nM, 5 days
Description: (§1) FIGS. 5A, 5B, 5C, 5D, 5E, 5F, and 5G. Reducing farnesyl-ykt6 enhances SNARE assembly and improves the lysosomal targeting of GCase. 5A) Ykt6 membrane shift analysis of SH-SY5Y cells expressing GFP-ykt6 wt or CS (n=3). 5B) Co-IP of GFP-ykt6 and bet1 in A53T iPSn (n=3). 5C) Ykt6 membrane shift analysis in FTI-treated SH-SY5Y wt a-syn cells or A53T iPSn (5 nM farnesyltransferase inhibitors (FTI) LNK-754 (FTI-1) or LNK-3248 (FTI-2) for 5 days) (n=4). Sec22b was measured to assess specificity. 5D) SEC/western blot of FTI-1 treated SH-SY5Y cells. Quantification is shown below. 5E) Co-IP of GFP-ykt6 wt or mutant ykt6-SS, (cannot be palmitoylated or farnesylated) in FTI-treated SHSY5Y cells (5 nM LNK-754, 5d) (n=2). 5F) Immunofluorescence of GCase and LAMP2A in FTI-treated H4 a-syn cells transfected with scrambled (scrb) or ykt6 shRNA (n=3). Scale bar=10 um. 5G) GCase maturation analysis in FTI-treated A53T iPSn by endo H (n=3). Values are the mean+/−SEM, *p<0.05.
Separation of lysates into cytosol and membrane fractions. […] Fractions were then analyzed by western blot analysis as described below. The samples were not analyzed in a blinded manner.
(§2) Treatment of cultures with farnesyltransferase inhibitors. […] Cultures were harvested and analyzed as described in the above sections.

ykt6 SNARE complexes [1] = test: SEC/western blot of ykt6 SNARE complexes in FTI-treated cultures; type: cell-based, human; conditions: SH-SY5Y cells, confirmed in A53T iPSn
Description: as §1
Size exclusion chromatography analysis. Cultures or PD brain (cingulate cortex, previously described (Mazzulli et al., 2011)) were homogenized as described above in 1% Triton buffer, centrifuged at 100,000×g for 30 min at 4° C. […]
as §2

ykt6 SNARE complexes [2] = test: Co-IP of GFP-ykt6 SNARE assemblies in FTI-treated SH-SY5Y cells; type: cell-based, human; conditions: SH-SY5Y cells expressing GFP-ykt6 wt; 5 nM, 5d
Description: as §1
To co-IP ykt6 SNARE assemblies, approximately 106-107 cells expressing GFP-tagged YKT6, were harvested in 1 ml of PBS, scraped off the plate and transferred to centrifuge tubes. The cells were subjected to centrifugation 200×g for 5 m at 4° C. […] Eluates were analyzed by western blot as described below. The samples were not analyzed in a blinded manner.

[3] = Pharmacokinetic studies of the FTI; type: in vivo, mice; conditions: single oral dose; data not shown
Description: Farnesyltransferase inhibition activates ykt6 in vivo and reduces pathological aggregation in mice. We next sought to determine if FTIs could activate ykt6 in the brains of mice by first testing their effect in wild-type animals.

time to clearance from plasma [3]: ≤ 20 h
SMILES: C#Cc1cccc(-c2cc(=O)n(C)c3ccc([C@](O)(c4ccc(Cl)cc4)c4cncn4C)cc23)c1 [LNK-754]
membrane association of ykt6 (ykt6): increased membrane association of ykt6
sec22b levels (specificity) (ykt6): did not change
levels of ykt6 SNARE complexes by SEC (ykt6 SNARE complexes [1]): elevated the levels of ykt6 SNARE complexes
ykt6 SNARE complexes by co-IP (ykt6 SNARE complexes [2]): increased ykt6 SNARE complexes
blood-brain-barrier crossing [3]: could rapidly cross the blood-brain-barrier
